Peptide text beside a SMILES is read from it. * marks the point of attachment. 5FAM = O=C1OC2(c3ccc(O)cc3Oc3cc(O)ccc32)c2ccc(C(=O)*)cc21; Ahx = NCCCCCC(=O)O

Assay [1] has as its target T1, PCNA (Homo sapiens, UniProt P12004).
T1 construct: made in house; host or cells: E. coli BL21 (DE3)
Kind of assay: Fluorescence polarization competition assay (displacement of FAM-PL from His-tagged PCNA). Particulars: for Disruption of PCNA-PL peptide binding by individual fragments: individual peptoid fragments screened alone, dose response (FIG. 7); for Ki: calculated from IC50 using equation 5 (modified Cheng-Prusoff), 95% confidence interval around the mean; for IC50: disruption of PCNA / FAM-PL binding, values are 95% confidence interval around the mean. Type of assay: binding. The method, then: The inclusion of PCNA was included in the overall calculations of Ki values.
Anisotropy was converted to fractional occupancy, and IC50 values were determined for each peptoid by performing non-linear regression fits of each dose response curve using equation 4. Inhibition constants (Ki values) were calculated from the resultant IC50 values using equation 5 (Table 2).
Fluorescence Polarization Competition Assay. […] The plate was allowed to incubate at room temperature in the dark for 30 minutes prior to fluorescent measurement. […] Anisotropy values were converted to fractional occupancy using equation 2, and IC50 values were calculated by fitting the data to equation 4:
[formula] wherein n is the Hill slope.

Assay [2] deals with T1, PCNA. Kind of assay: Fluorescence polarization binding assay (PCNA titration for affinity of FAM-PL). The conditions noted are these: fixed FAM-PL (5 nM), two-fold increasing recombinant His-tagged PCNA, non-linear regression; read-out: Kd of FAM-PL peptide for PCNA. How it is done: After synthesis and purification, peptoids were screened in a fluorescence polarization (FP) assay to find ligands that disrupted the interaction between His-tagged PCNA and fluorescein-labeled Pogo Ligase peptide (FAM-PL) (Kontopidis, G., et al. Proc. Natl. Acad. Sci. U.S.A 2005, 102 (6), 1871-1876). In the design of the assay, conditions were adopted from Pedley et al., 2016, to improve the dynamic range between bound and unbound FAM-PL. While an acceptable Z-score was determined using the original 10 nM peptide and 100 nM PCNA (FIG. 4), an improved dynamic range was established by adjusting the ligand and receptor concentrations. […] Because more than 80% of the peptide was bound at a PCNA concentration of […] this protein-receptor concentration was selected for use in subsequent displacement assays. The inclusion of PCNA was included in the overall calculations of Ki values.
Fluorescence Polarization Binding Assay. […] Fluorescence polarization and resultant anisotropy were measured on a BioTek Synergy 4 Multi-Detection Microplate Reader using an excitation filter of 485 nm and an emission filter of 530 nm, each with a 20 nm band-pass. […]
FO values were analyzed using non-linear regression statistics in OriginPro 2015, representing them as the mean±standard error of the mean (Y), and plotting them as a function of the monomeric PCNA protein concentration (X). […]
For orientation: Polarisation of emitted light reports the rotation of a fluorescent probe.

T1 sequence (P12004 with tags, fused parts or gaps): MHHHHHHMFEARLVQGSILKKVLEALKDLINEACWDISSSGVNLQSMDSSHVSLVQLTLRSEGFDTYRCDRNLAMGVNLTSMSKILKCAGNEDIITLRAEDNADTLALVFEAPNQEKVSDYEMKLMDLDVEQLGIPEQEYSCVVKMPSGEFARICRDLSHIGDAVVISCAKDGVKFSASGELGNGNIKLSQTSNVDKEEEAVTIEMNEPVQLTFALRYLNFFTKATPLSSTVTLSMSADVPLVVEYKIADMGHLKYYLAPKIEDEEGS

`CC(C)(C)OC(=O)c1ccc(CN)cc1` [NBza]: in assay [1], the “Disruption of PCNA-PL peptide binding by individual fragments” value (shortened to “Disruption of PCNA-PL peptide binding”) is recorded as “none of the fragments showed any evidence of inhibition”. Regarding `CC[C@H](C)[C@H](NC(=O)[C@H](CCCCN)NC(=O)[C@H](CCCCN)NC(=O)[C@H](CCC(N)=O)NC(=O)[C@H](CC(C)C)NC(=O)[C@@H](NC(=O)[C@H](C)NC(=O)[C@H](CO)NC(=O)CCCCCNC(=O)c1ccc2c(c1)C(=O)OC21c2ccc(O)cc2Oc2cc(O)ccc21)C(C)C)C(=O)N[C@H](C(=O)N[C@@H](CC(=O)O)C(=O)N[C@@H](Cc1ccc(O)cc1)C(=O)N[C@@H](Cc1ccccc1)C(=O)N[C@@H](Cc1c[nH]cn1)C(=O)N1CCC[C@H]1C(=O)N[C@@H](CCCCN)C(=O)N[C@@H](CCCCN)C(N)=O)[C@@H](C)O` [FAM-PL] ({5FAM-Ahx}-SAVLQKKITDYFHPKK-NH2), the dissociation constant Kd (commonly the concentration at which binding is half-saturated) in assay [2] amounted to 0.107 µM. With `NCCO` [NEal, ethanol amine], the “Disruption of PCNA-PL peptide binding” value in assay [1] is “none of the fragments showed any evidence of inhibition”. On to `NCc1ccc(CNCC(=O)N(CC(=O)N(CC(N)=O)Cc2ccc(CO)cc2)Cc2ccc3c(c2)OCO3)cc1` [NMma-NPip-NBal], for which, in assay [1], the Ki (as a rule, the equilibrium dissociation constant of an inhibitor or competing ligand from its target) is 1.12 ± 0.245 µM and the IC50 (in general, the point on the concentration scale where inhibition reaches its midpoint) came to 11.7 ± 2.55 µM. As for `NCc1ccc(CN(CC(N)=O)C(=O)CN(CCO)C(=O)CN[C@H](CO)Cc2cc(I)c(Oc3ccc(O)cc3)c(I)c2)cc1` [T2AA-NEal-NMma], in assay [1], the Ki is 0.114 ± 0.0231 µM and the concentration for half-maximal inhibition (IC50) was 1.18 ± 0.24 µM. For `CC(C)(C)[Si](C)(C)OCc1ccc(CN)cc1` [NBal], the “Disruption of PCNA-PL peptide binding” value in assay [1] is “none of the fragments showed any evidence of inhibition”. With `NCCCCNCC(=O)N(CC(=O)N(CC(N)=O)Cc1ccc(CN)cc1)Cc1ccc2c(c1)OCO2` [NLys-NPip-NMma], in assay [1], the Ki was 1.24 ± 0.19 µM and the IC50 is 12.9 ± 1.97 µM.

The record behind these values is patent publication US11400130B2, “Inhibitors for proliferating cell nuclear antigen and uses” (Purdue Research Foundation, priority 2015, dated 2022).
